What was measured:
HLA-E*01:03 = HLA-E*01:03 (Homo sapiens, UniProt P13747); format: binding; details: S/P relative to positive control […] or […], tested at least two times, median, Figure 1
NKG2A/CD94 = NKG2A/CD94 (Homo sapiens, UniProt P26715+Q13241); format: binding
Chain of NKG2A/CD94 (P26715 whole entry): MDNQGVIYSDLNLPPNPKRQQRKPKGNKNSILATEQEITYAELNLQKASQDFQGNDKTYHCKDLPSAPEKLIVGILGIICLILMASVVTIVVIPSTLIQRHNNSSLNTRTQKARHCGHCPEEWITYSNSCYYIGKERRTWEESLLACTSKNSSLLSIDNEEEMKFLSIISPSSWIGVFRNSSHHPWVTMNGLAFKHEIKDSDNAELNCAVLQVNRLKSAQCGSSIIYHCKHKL
Chain of NKG2A/CD94 (Q13241 whole entry): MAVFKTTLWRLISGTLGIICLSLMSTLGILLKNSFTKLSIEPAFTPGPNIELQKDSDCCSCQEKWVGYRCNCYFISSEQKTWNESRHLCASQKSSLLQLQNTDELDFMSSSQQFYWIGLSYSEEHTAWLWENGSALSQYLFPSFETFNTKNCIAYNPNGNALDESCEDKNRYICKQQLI

Row | Sequence | Peptide binding affinity for HLA-E*01:03 (signal to positive, S/P, ratio), in words (HLA-E*01:03) | Interaction of thermal exchanged HLA-E TM/peptide complex with NKG2A/CD94, in words (NKG2A/CD94)
1 | VMAPRTLVL [Mtb55-VL9-hybrid] | increased the affinity | could interact
2 | VMTPRTLTL [Mtb34-VL9-hybrid] | increased the affinity | 

From article PMC12041767 (Journal of immunology (Baltimore, Md. : 1950), 2025)
